Measured values published in patent US7186699B2, “Method for treating cancer by vector-mediated delivery of one or more anti-angiogenic or pro-apoptotic genes” (Cell Genesys, Inc., priority 2003, dated 2007).
Residue numbers refer to the chain shown, from its start. Where a SMILES comes first, the peptide text is derived from it. The star is where a group is joined. Cbz = O=C(OCc1ccccc1)*; CH2F = FC*

Assays:
Colo-205 cells [1] = test: DNA fragmentation (apoptosis) ELISA in Colo-205 cells; type: cell-based, human
Description: Apoptosis, e.g. […]
DNA fragmentation is quantitated by a photometric enzyme-immunoassay (Cell Death Detection ELISA Assay, Roche) for measuring cytoplasmic histone-associated nucleosomes according to the manufacturer's protocols. % Apoptosis is defined as relative increase in DNA fragmentation in treated vs. control cells calculated by [O.D. Treated−background]/[Maximal O.D.−Background].

Caspase 3 = Caspase 3 protease activity in Colo-205 cell lysates (DEVD-pNA); type: cell-based, human
Experimental: (§1) In certain assays, cells are pre-treated with 20 uM of the pan-caspase inhibitor, ZVAD-fmk (RnD Systems), 1 hr prior to stimulation with TRAIL or control agents.

Caspase 8 = Caspase 8 protease activity in Colo-205 cell lysates (IETD-pNA); type: cell-based, human
Experimental: as §1

[2] = system: HT29 colorectal tumor cells; test: Chemosensitization of HT29 colon cancer cells to TRAIL; type: cell-based, human
Experimental: FIGS. 17A–C show augmentation of sTRAIL-induced HT29 colon cancer cytotoxicity by chemotherapy sensitization.
(§2) Tumor cells are plated at 1e4 cells per well in 96-well plates and incubated overnight at 37 C after which time the cells are left untreated or treated with the indicated sub-toxic doses of chemotherapeutic agents. After 24 hr, the cells are left untreated, or treated with sub-toxic doses of recombinant human TRAIL or AAV-produced TRAIL for an additional 24, 48 or 72 hr. Cell viability is evaluated using a tetrazolium-salt (WST-8) based proliferation assay (Cell Counting Kit-8, Dojindo Laboratories, Japan) according to the manufacturer's recommendations. % Cytotoxicity/Growth Inhibition was defined as [1-(OD treated−background)/(OD untreated−background)×100].
(§3) The specificity of TRAIL-induced cell death was tested in a variety of tumor and normal cells. […] The combinatorial cytotoxic effects of TRAIL and chemotherapy were tested in a panel of tumor cells.

[3] = system: colorectal tumor cell lines (HT29, HCT-116, Colo-205); test: Combination of sTRAIL and COX inhibitors in colorectal tumor cell lines; type: cell-based, human; conditions: combined with high doses of SC-560 and Celebrex
Experimental: as §3

Colo-205 cells [4] = test: Colo-205 growth inhibition/viability, WST-8 tetrazolium assay; type: cell-based, human; conditions: 24, 48 and 72 hr treatment, FIG. 10B/10C
Experimental: Cell proliferation was evaluated using a WST-8-based tetrazolium salt viability assay using the formulas: % Viability=[OD (sTRAIL) treated−background]/[OD (GFP) untreated−background]×100 and % Growth Inhibition=[1-(OD treated−background)/OD untreated−background)]×100.

human tumor cell lines = test: Sensitivity of tumor cell lines to TRAIL, WST-8 cytotoxicity assay; type: cell-based; conditions: human tumor cell lines from diverse tissues; 24 hr; FIG. 14
Experimental: Briefly, 1e4 tumor cells (ATCC), or normal primary cells (BioWhittaker), are seeded in one well of a 96-well titer plate and incubated overnight at 37° C. Cells are then treated with the test or control agents for 24, 48 or 72 hr. Following treatment, cell viability is evaluated using a tetrazolium-salt (WST-8) based proliferation assay (Cell Counting Kit-8, Dojindo Laboratories, Japan) according to the manufacturer's recommendations. % Cytotoxicity/Growth inhibition is defined as [1-(OD treated−background)/(OD untreated−background)×100].
as §3

[5] = system: A549 lung carcinoma, U87MG glioma, MCF7 breast carcinoma, PC-3 prostate carcinoma; test: Chemosensitization of tumor cells to TRAIL; type: cell-based, human; conditions: A549+cisplatin, U87MG+etoposide, MCF-7+doxorubicin, PC-3+doxorubicin; 24 hr pre-treatment with sub-toxic doses, then 24 hr TRAIL
Experimental: FIGS. 16A–D show augmentation of sTRAIL-induced tumor cell cytotoxicity by chemotherapy sensitization 1 e4 tumor cells were pretreated with genotoxic agents for 24 hr to sensitize, then subsequently treated with sTRAIL for 24 hr. Viability was measured by WST-8 tetrazolium salt assay after 24 hr sTRAIL treatment and % Growth inhibition=[1-(OD treated−background)/(OD untreated−background)×100].
as §2, §3

[6] = system: VEGF induced vessel sprouting; test: Chick chorioallantoic membrane (CAM) assay; type: in vivo; conditions: 25 ng VEGF with 0.1, 1 and 10 ng protein from conditioned media; 72 hr
Experimental: FIG. 4 illustrates the results of experiments that show PF4 and PF4(DLR) reduce VEGF stimulated angiogenesis in the chick chorioallantoic membrane (CAM) assay. Hyrdocortisone-containing filter disks were soaked with 25 ng of VEGF together with 0.1 ng, 1 ng and 10 ng of PF-4 or PF-4(DLR) derived from conditioned media. AAV-null, 293 cell supernatant and an internal PF-4 protein standard, PF4-Blast, were included in the assay as separate controls. Filter disks were aseptically placed on top of the chorioallantoic membranes of 11 day chick embryos. 72 hours after incubation the CAMs were surgically removed, fixed and the number of vessel sprouts determined by stereomicroscopy.
Hydrocortisone-containing filter discs are soaked with 25 ng Vascular Endothelium Growth Factor (VEGF) (R&D Systems, Minneapolis, Minn.) together with the indicated doses of conditioned media from control or vector transduced cells, and aseptically placed on top of the chorioallantoic membranes of 11 day old chick embryos. After 72 hr incubation, the CAMs are surgically removed, fixed and the discs are analyzed for VEGF-induced angiogenesis by stereomicroscopy. The mean number (+/−SEM) of branch points occurring in the new blood vessel sprouts beneath the applied filter disc from the treated CAMs is enumerated from multiple (n=8–10) samples. […]

[7] = Colo-205 cells pre-incubated with 20 uM inhibitor
[8] = Colo-205 cells, 4 hr incubation

Molecule: COC(=O)C[C@H](NC(=O)[C@H](C)NC(=O)[C@@H](NC(=O)OCc1ccccc1)C(C)C)C(=O)CF [ZVAD-fmk] (Cbz-Val-Ala-Asp(OMe)-CH2F)
- Effect on sTRAIL induced DNA fragmentation (Colo-205 cells [1]; Colo-205 cells pre-incubated with increasing amounts of inhibitor, 6 hr after sTRAIL treatment): prevents sTRAIL induced DNA fragmentation in a dose-dependent manner
- Effect on TRAIL-induced caspase 3 protease activity (Caspase 3; [7]): blocking of TRAIL-induced caspase protease activity
- Effect on TRAIL-induced caspase 8 protease activity (Caspase 8; [7]): blocking of TRAIL-induced caspase protease activity

Molecule: TRAIL
- Cytotoxic effect combined with chemotherapy ([2]; combined with sub-toxic doses of doxorubicin, cisplatin, or camptothecin): synergistic cytotoxic effect
- Cell death with TRAIL alone ([2]; sub-optimal doses of TRAIL): refractory to cell death
- Cytotoxic activity combined with cyclo-oxygenase-2 inhibitors [3]: synergistic cytotoxic activity

Molecule: recombinant human TRAIL: recombinant human TRAIL purchased from a commercial vendor (RnD Systems)
- 50% effective dose of Colo-205 growth inhibition (Colo-205 cells [4]): approximately 0.5 ng/ml
- 50% effective dose (ED50) for induction of apoptosis (DNA fragmentation) (Colo-205 cells [1]; Colo-205 cells, 6 hr incubation (sTRAIL 6, 16 and 24 hr), FIG. 11): approximately 1 ng/ml
- Induction of caspase 3 protease activity (Caspase 3; [8]): Dose-dependent induction
- Induction of caspase 8 protease activity (Caspase 8; [8]): Dose-dependent induction
- Cytotoxicity in tumor cell lines (human tumor cell lines): cytotoxicity was observed in a wide spectrum of human tumor cell lines
- Cytotoxic effect combined with chemotherapy [5]: augmented cytotoxic effect

B1: PF-4: platelet factor-4 from conditioned media of transfected 293 cells (SEQ ID NO:7) (protein)
chain: MSSAAGFCASRPGLLFLGLLLLPLVVAFASAEAEEDGDLQCLCVKTTSQVRPRHITSLEVIKAGPHCPTAQLIATLKNGRKICLDLQAPLYKKIIKKLLES
modifications: platelet factor-4
- VEGF induced vessel sprouting [6]: blockage of VEGF induced vessel sprouting

B2: PF-4(DLR): platelet factor-4 with the DLR mutation (SEQ ID NO:9) from conditioned media (protein)
chain: B1 chain with Q87R
modifications: platelet factor-4 with DLR mutation
- VEGF induced vessel sprouting [6]: blockage of VEGF induced vessel sprouting
